Reference: ChEMBL document CHEMBL1139168, “Pyrrolidino-tetrahydroisoquinolines as potent dual H3 antagonist and serotonin transporter inhibitors” (Bioorg Med Chem Lett, 2007)

What was measured:
Histamine H3 receptor = Histamine H3 receptor (Homo sapiens, UniProt Q9Y5N1); test: Binding affinity at human histamine H3 receptor expressed in SK-N-MC cells
[1] = target: Sodium-dependent serotonin transporter (Rattus norvegicus, UniProt P31652); test: Displacement of [3H]citalopram from rat brain SERT
Sequence of Sodium-dependent serotonin transporter (P31652 whole entry): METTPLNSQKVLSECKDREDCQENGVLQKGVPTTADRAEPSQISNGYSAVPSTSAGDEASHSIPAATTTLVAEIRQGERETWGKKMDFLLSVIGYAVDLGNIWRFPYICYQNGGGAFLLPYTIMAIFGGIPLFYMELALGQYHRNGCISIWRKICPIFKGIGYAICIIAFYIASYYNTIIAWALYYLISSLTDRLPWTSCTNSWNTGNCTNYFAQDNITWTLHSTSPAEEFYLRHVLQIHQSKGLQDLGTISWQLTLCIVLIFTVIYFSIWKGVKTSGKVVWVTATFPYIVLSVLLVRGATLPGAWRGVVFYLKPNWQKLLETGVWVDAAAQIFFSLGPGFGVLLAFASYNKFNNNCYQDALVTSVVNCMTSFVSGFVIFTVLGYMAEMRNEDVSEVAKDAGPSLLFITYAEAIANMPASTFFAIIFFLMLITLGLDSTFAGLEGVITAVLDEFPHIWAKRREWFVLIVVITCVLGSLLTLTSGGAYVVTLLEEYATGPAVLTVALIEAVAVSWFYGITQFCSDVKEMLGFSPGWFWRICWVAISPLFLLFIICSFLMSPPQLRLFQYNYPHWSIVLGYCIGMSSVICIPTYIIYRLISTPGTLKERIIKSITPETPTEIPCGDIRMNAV

Rattus norvegicus [2] = test: Increase in extracellular serotonin level in rat brain frontal cortex at 1 mg/kg, ip after 24 hrs relative to basal level; type: functional; conditions: route intraperitoneal
[3] = Cmax in mouse brain at 30 mg/kg, ip
Mus musculus [4] = test: Inhibition of SERT in 5-hydroxytryptophan potentiated head twitch mouse model assessed as increase in head twitch response at 3 mg/kg, ip relative to control; type: functional; design: scale not given: the % may be the effect or the level left; conditions: route intraperitoneal
[5] = Bioavailability in rat 10 mg/kg, po; type: ADME, organism-based; conditions: in vivo
[6] = Half life in rat at 1 mg/kg, iv or 10 mg/kg, po; type: ADME, organism-based; conditions: in vivo
Rattus norvegicus [7] = test: Increase in extracellular dopamine level in rat brain frontal cortex at 1 mg/kg, ip after 8 hrs relative to basal level; type: functional; conditions: route intraperitoneal
Mus musculus [8] = test: Inhibition of SERT in ip dosed 5-hydroxytryptophan potentiated head twitch mouse model assessed as increase in head twitches after 24 hrs; type: functional, organism-based
Rattus norvegicus [9] = test: Increase in extracellular dopamine level in rat brain frontal cortex at 1 mg/kg, ip after 24 hrs relative to basal level; type: functional; conditions: route intraperitoneal
Rattus norvegicus [10] = test: Increase in extracellular serotonin level in rat brain frontal cortex at 1 mg/kg, ip after 8 hrs relative to basal level; type: functional; conditions: route intraperitoneal
Mus musculus [11] = test: Inhibition of SERT in 5-hydroxytryptophan potentiated head twitch mouse model assessed as increase in head twitch response at 10 mg/kg, ip relative to control; type: functional; design: scale not given: the % may be the effect or the level left; conditions: route intraperitoneal

Sequence of Histamine H3 receptor (Q9Y5N1 whole entry): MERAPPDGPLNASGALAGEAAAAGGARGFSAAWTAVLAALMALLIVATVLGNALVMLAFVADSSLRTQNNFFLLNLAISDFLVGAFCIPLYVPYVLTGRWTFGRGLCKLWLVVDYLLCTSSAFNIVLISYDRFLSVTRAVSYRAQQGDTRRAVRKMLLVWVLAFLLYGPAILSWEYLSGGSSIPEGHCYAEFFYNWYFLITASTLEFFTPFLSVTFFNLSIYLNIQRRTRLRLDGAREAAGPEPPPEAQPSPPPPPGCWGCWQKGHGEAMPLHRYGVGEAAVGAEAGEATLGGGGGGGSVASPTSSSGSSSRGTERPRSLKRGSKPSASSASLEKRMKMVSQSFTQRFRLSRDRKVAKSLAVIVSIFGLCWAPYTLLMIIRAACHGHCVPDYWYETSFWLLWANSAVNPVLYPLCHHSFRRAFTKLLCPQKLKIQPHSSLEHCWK

Row | Compound | Ki (Histamine H3 receptor) [nM] | Ki [1] [nM] | also measured
1 | CN(C)c1ccc(C2CN3CCCC3c3cc(OCCCN4CCCCC4)ccc32)cc1 (racemic) | 1.6 | 3.3 | –
2 | c1ccc(C2CN3CCCC3c3cc(OCCCN4CCCCC4)ccc32)cc1 (racemic) | 0.9 | 2 | –
3 | COc1ccc(C2CN3CCCC3c3cc(OCCCN4CCCCC4)ccc32)cc1 (racemic) | – | – | Activity (Rattus norvegicus [2]): 500%; Cmax [3]: 1280 nM; Activity (Mus musculus [4]): 384%; bioavailability [5]: 16%; half-life [6]: 15.7 h; Activity (Rattus norvegicus [7]): 300%; Activity (Mus musculus [8]): Dose-dependent effect; Activity (Rattus norvegicus [9]): 300%; Activity (Rattus norvegicus [10]): 500%; Activity (Mus musculus [11]): 661%
4 | Clc1ccc(C2CN3CCCC3c3cc(OCCCN4CCCCC4)ccc32)cc1 (racemic) | 2.2 | 6.3 | –
5 | Fc1ccc(C2CN3CCCC3c3cc(OCCCN4CCCCC4)ccc32)cc1 (racemic) | 1.7 | 3.7 | –
6 | FC(F)(F)Oc1ccc(C2CN3CCCC3c3cc(OCCCN4CCCCC4)ccc32)cc1 (racemic) | 4 | 11 | –
7 | COc1ccccc1C1CN2CCCC2c2cc(OCCCN3CCCCC3)ccc21 (racemic) | 1.3 | 14 | –
8 | Cc1ccc(C2CN3CCCC3c3cc(OCCCN4CCCCC4)ccc32)cc1 (racemic) | 2 | 3 | –
9 | CSc1ccc(C2CN3CCCC3c3cc(OCCCN4CCCCC4)ccc32)cc1 (racemic) | 2.5 | 3.3 | –
10 | C#Cc1ccc(C2CN3CCCC3c3cc(OCCCN4CCCCC4)ccc32)cc1 (racemic) | 4 | 7 | –
11 | Oc1ccc(C2CN3CCCC3c3cc(OCCCN4CCCCC4)ccc32)cc1 (racemic) | 1.7 | 9.3 | –
12 | COc1cccc(C2CN3CCCC3c3cc(OCCCN4CCCCC4)ccc32)c1 (racemic) | 1.7 | 4.7 | –
13 | FC(F)(F)c1cccc(C2CN3CCCC3c3cc(OCCCN4CCCCC4)ccc32)c1 (racemic) | 2 | 21.7 | –
14 | C#Cc1cccc(C2CN3CCCC3c3cc(OCCCN4CCCCC4)ccc32)c1 (racemic) | 2 | 8.7 | –
15 | Clc1ccccc1C1CN2CCCC2c2cc(OCCCN3CCCCC3)ccc21 (racemic) | 2.3 | 8.7 | –
16 | FC(F)(F)c1ccc(C2CN3CCCC3c3cc(OCCCN4CCCCC4)ccc32)cc1 (racemic) | 4.7 | 26.7 | –
17 | O=[N+]([O-])c1ccc(C2CN3CCCC3c3cc(OCCCN4CCCCC4)ccc32)cc1 (racemic) | 1.3 | 5.3 | –
18 | Oc1cccc(C2CN3CCCC3c3cc(OCCCN4CCCCC4)ccc32)c1 (racemic) | 0.7 | 1.3 | –
19 | N#Cc1ccc(C2CN3CCCC3c3cc(OCCCN4CCCCC4)ccc32)cc1 (racemic) | 1.2 | 24.7 | –
20 | Oc1ccccc1C1CN2CCCC2c2cc(OCCCN3CCCCC3)ccc21 (racemic) | 3.7 | 20.7 | –
21 | Clc1cccc(C2CN3CCCC3c3cc(OCCCN4CCCCC4)ccc32)c1 (racemic) | 1.2 | 4 | –
